Measurements taken from patent US20040023994A1 (priority 2002, published 2004).
Like-named read-outs stand apart in the source and are kept apart here.

Columns and labels:
DU-145 = format: cell-based; settings: DU-145, Prostate, 48 h
TK-10 = format: cell-based; settings: TK-10, Renal, 48 h
A549/ATCC [1] = settings: for CC50: read-out: LC50
HL-60(TB) [2] = experiment: cells; settings: Homo sapiens, HL-60, 48 h
NCI-H522 = settings: NCI-H522, Non-Small Cell Lung, 48 h
A549/ATCC [3] = settings: Non-Small Cell Lung, NCI database, cited from earlier work; for CC50: read-out: LC50 (the source's name)
HL-60(TB) [4] = settings: cited from earlier work; for GI50 / TGI: Leukemia, NCI database; for CC50: read-out: LC50, Leukemia, NCI database
[5] = Homo sapiens, read-out: LC50 (the source's name)
[6] = A549/ATCC, Non-Small Cell Lung, 48 h

## CC(=O)C=CSc1ncnc2nc[nH]c12 [cis-AVTP, 6-(2-acetylvinylthio) purine]
DU-145
  TGI: 3.97 µM
DU-145; Homo sapiens
  GI50: 1.32 µM
DU-145; [5]
  CC50: 24.4 µM
TK-10; Homo sapiens
  GI50: 0.03 µM
TK-10; [5]
  CC50: 13.9 µM
TK-10
  TGI: 0.64 µM
A549/ATCC [1]; [6]
  TGI: 24.3 µM
A549/ATCC [1]; Homo sapiens, A549, 48 h
  GI50: 6.94 µM
  CC50: 69.5 µM
HL-60(TB) [2]
  GI50: 0.49 µM
HL-60(TB) [2]; read-out: LC50
  CC50: > 100 µM

## CC(=O)C=CSc1nc(N)nc2nc[nH]c12 [trans-AVTG, 6-(2-acetylvinylthio) guanine]
MALME-3M; Melanoma, 48 h
  GI50: 0.37 µM
  TGI: 3.07 µM
MALME-3M; read-out: LC50, Melanoma, 48 h
  CC50: 29.3 µM
NCI-H522
  GI50: 0.02 µM
  TGI: 0.05 µM
NCI-H522; read-out: LC50
  CC50: 8.28 µM
A549/ATCC [1]; [6]
  GI50: 5.75 µM
  TGI: 32.8 µM
  CC50: > 100 µM

## Nc1nc2nc[nH]c2c(=S)[nH]1 [6-TG, 6-thioguanine]
A549/ATCC [3]
  CC50: > 100 µM
  GI50: 3.48 µM
  TGI: >100 µM
HL-60(TB) [4]
  GI50: 1.07 µM
  TGI: 17.8 µM
  CC50: > 100 µM

## Sc1ncnc2nc[nH]c12 [6-MP, 6-mercaptopurine]
A549/ATCC [3]
  CC50: > 100 µM
  GI50: 27.7 µM
  TGI: >100 µM
HL-60(TB) [4]
  GI50: 2.3 µM
  TGI: >100 µM
  CC50: > 100 µM
